Experiment: gradient 5% acetonitrile 3 min, to 50% in 2 min, to 85% in 15 min, held 3 min, 100 µL/min
Conditions: column: Zorbax Extend-C18 2.1 x 50 mm; eluents: water / acetonitrile, 0.1% formic acid
Method in brief: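 The mobile phases were water and acetonitrile, each with 0.1% formic acid, pumped at 100 μL/min through a Zorbax Extend-C18 column (2.1 × 50 mm, 1.8 μm). Pure standards were injected as mixtures of ~100 molecules and detected by a quadrupole time-of-flight mass spectrometer in positive and negative ionization mode. Retention time came from computationally picked adduct peaks, each inspected by hand.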

Row | Structure (SMILES) | RP-LC retention time [s]
1 | O=C(C1=CN(c2ccc(Oc3ccccc3)cc2)c2ccccc2S1(=O)=O)N1CCOCC1 | 913
2 | Cc1noc([C@@H]2CN(Cc3cc(F)ccc3F)C[C@H]2CO)n1 | 576
3 | CCOc1ccccc1C(=O)NC1CCN(C(=O)c2cn[nH]c2-c2ccc(F)cc2)CC1 | 683
4 | CSc1cccc(NC(=O)Cn2cnc3c(-c4ccncc4)nsc3c2=O)c1 | 668
5 | O=C(CSc1cc(-n2ccc(C(=O)NC3CC3)n2)ncn1)Nc1ccc(Cl)cc1F | 867
6 | CCc1cc(N2CCN(C(=O)c3ccc(C#N)cc3)CC2)nc2nncn12 | 581
7 | COc1cccc(NC(=O)Cn2c(C)cc(-c3nnc(-c4ccccc4)o3)c2C)c1 | 921
8 | CCN1C(=O)CCc2cc(NS(=O)(=O)c3ccc(Cl)c(Cl)c3)ccc21 | 904
9 | CNC(=O)C1CCN(c2nc3ccc(-c4ccc(OC)cc4)nc3s2)CC1 | 771
10 | CN(CC1CCOC1)C(=O)Cc1cccc(Cl)c1 (configuration not stated) | 734
11 | N#Cc1ccccc1CN1CCC(N2CC(OCC3CC3)C23CCCCC3)CC1 (configuration not stated) | 607
12 | COc1ccc2[nH]cc(CCNC(=O)c3c(Cl)cccc3Cl)c2c1 | 774
13 | O=C(NCc1ccccc1Br)c1cn2c(n1)CCCC2 | 610
14 | CCn1cc(-c2nc(C(=O)NCc3ccccc3C)cs2)c2cccnc21 | 1060
15 | Cn1nccc1-c1cccc(-c2noc(-c3cncc(Br)c3)n2)c1 | 1100
16 | Cc1ccc(C)c(NC(=O)C2CCCN(S(=O)(=O)c3cc(-c4noc(C)n4)cs3)C2)c1 (configuration not stated) | 1060
17 | CC(C)N1CCn2cc(S(=O)(=O)NCc3ccc(F)cc3Cl)cc2C1=O | 788
18 | O=C1CCN(S(=O)(=O)c2ccccc2)CCCN(S(=O)(=O)c2cccc(F)c2)CCN1 | 795
19 | CCCCN1N=C(C(=O)N2CCOCC2)S(=O)(=O)c2cc(Cl)ccc21 | 862

Row | Structure (SMILES) | RP-LC retention time [s]
20 | Cc1ccc(CNC(=O)C2CCN(S(=O)(=O)c3ccc4c(c3)NC(=O)CO4)CC2)o1 | 715
21 | Cc1cc(C)c(S(=O)(=O)Nc2cc(-c3cn4ccccc4n3)ccc2C)cc1C | 737
22 | O=C(c1ccoc1)N1CCCCC1c1nc(-c2cnccn2)no1 (configuration not stated) | 664
23 | COc1cccc(-c2ccc3nc(N4CCC(C(=O)NC5CC5)CC4)sc3n2)c1 | 861
24 | CCc1ccc(NC(=O)C2CCN(S(=O)(=O)c3ccc4c(c3)sc(=O)n4CC)CC2)cc1 | 953
25 | O=C(O)CCCC(=O)N1C[C@H]2C[C@@H](C1)c1cccc(=O)n1C2 | 564
26 | CCc1nc(-c2csc(S(=O)(=O)N3CCCC(C(=O)Nc4c(C)cccc4C)C3)c2)no1 (configuration not stated) | 1010
27 | O=C(Cn1c(=O)n(-c2ccc(F)cc2)c2ncccc21)NC1CCCC1 | 773
28 | CN(C)C(=O)c1n[nH]c2c1CN(C(=O)c1ccc(F)c(F)c1)CC2 | 634
29 | C=CCOc1ccc(S(C)(=O)=O)cc1 | 814
30 | CCOC(=O)CNC(=O)NCCn1c(-c2ccc(F)cc2)nc2ccccc21 | 592
31 | CCOC(=O)c1oc2ccccc2c1NC(=O)c1ccc([N+](=O)[O-])s1 | 1040
32 | Cc1nnc(C2CCCN(C(=O)c3ccccc3Cl)C2)s1 (configuration not stated) | 652
33 | CCCCN(C(=O)c1noc2c1CC(C)CC2)C1CCN(C(C)=O)CC1 (configuration not stated) | 895
34 | CCc1noc(-c2cnc3nc(C)ccc3c2Nc2cccc(OC)c2)n1 | 778
35 | CCC(CC)C(c1ccc(Nc2nc3ccccc3s2)cc1)n1cncn1 (configuration not stated) | 1150
36 | CCc1ccc(S(=O)(=O)c2cnc(N3CCC(C(N)=O)(N4CCCCC4)CC3)nc2N)cc1 | 661
37 | CCN(Cc1cn(C)nc1C)C(=O)c1cc2c(=O)n(CC(C)C)c3ccccc3n2n1 | 864
